Experimental data published in patent US20240271138A1, “METHODS AND COMPOSITIONS FOR MODULATING STING SIGNALING AND INNATE IMMUNE RESPONSES” (The Broad Institute, Inc., priority 2021, published 2024).

Legend:
human STING = human STING (Homo sapiens, UniProt Q86WV6); details: cited from earlier work
type 1 IFN expression = details: cited from earlier work
T-cells = details: cited from earlier work
DNAJC13 = assay: Immunofluorescence of DNAJC13 in 293T cells; format: cell-based, human; details: 1 μm VPS34-IN1, FIG. 22B
From the text: (§1) FIGS. 22A-22F show endosome localization and J domain activity are essential for DNAJC13's function on STING.

STING = assay: Immunoblots of U937 and STING-HA 293T cells treated with VPS34-IN1 and cGAMP; format: cell-based, human; details: 1 μM VPS34-IN1
From the text: as §1

[1] = tested on: STING LBD fusion proteins (PH-S139, 2XFYVE-S139); assay: mNG fluorescence and immunoblots of organelle-targeted STING LBD fusion proteins; format: cell-based, human; details: nigericin stimulation
From the text: Upper, concentrated STING is able to mediate TBK1 for trans-phosphorylation. Lower, diluted STING is unable to mediate TBK1's transphosphorylation.

STING-HA = STING-HA degradation in 293T stably expressing STING-HA, HA intracellular staining; format: cell-based, human; details: 293T STING-HA; cGAMP 6 hours; pre-treatment with U18666A; FIGS. 11G-11H
From the text: FIGS. 11A-11H show interaction of ESCRT components with STING. FIGS. 11A-11D show immunofluorescence of CD63, HGS, and STING (FIG. 11A); p62, HGS, and STING (FIG. 11B); LC3B, HGS, and STING (FIG. 11C); p62, CD63, and STING (FIG. 11D) in 293T stably expressing STING-HA and non-stimulated, relative to FIGS. 4A-4D. […] Dashed box represents the cropped region enlarged in the right panel for the +cGAMP condition. Scale bar is 10 μm. One representative field of n≥3 independent fields in n=3 independent experiments. […] One representative experiment of n=3 independent experiments with n=2 technical replicates per experiment. […] Each dot represents an individual replicate **** p<0.0001.
Data was analyzed with FlowJo (BD).

[2] = sgCTRL cells, cGAMP stimulation, FIGS. 22D-22E

Sequence of human STING (Q86WV6 whole entry H232R): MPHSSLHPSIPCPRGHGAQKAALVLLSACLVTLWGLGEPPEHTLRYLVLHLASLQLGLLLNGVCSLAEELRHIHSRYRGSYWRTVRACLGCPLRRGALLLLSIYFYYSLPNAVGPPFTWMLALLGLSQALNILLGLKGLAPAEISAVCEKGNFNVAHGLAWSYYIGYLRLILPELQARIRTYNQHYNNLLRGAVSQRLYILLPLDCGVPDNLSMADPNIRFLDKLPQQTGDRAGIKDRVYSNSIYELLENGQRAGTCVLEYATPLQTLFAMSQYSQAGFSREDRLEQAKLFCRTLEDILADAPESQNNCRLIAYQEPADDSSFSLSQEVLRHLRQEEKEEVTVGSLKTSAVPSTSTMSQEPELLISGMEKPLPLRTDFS

In the case of Cc1ccc2c(=O)c3cccc(CC(=O)O)c3oc2c1C [DMXAA, 6-dimethylxanthenone-4-acetic acid], the “binding to human STING versus murine STING” value (human STING) is listed as “substantially weaker binding to human STING in comparison to murine STING”, the “type 1 IFN expression” value (type 1 IFN expression) is listed as “induces type 1 IFN expression” and the “apoptosis in T-cells” value (T-cells) is listed as “elicits stress pathways that induce apoptosis in T-cells”.

For cyclic GMP-AMP [cGAMP], the “T-cell proliferation and T-cell death” value (T-cells; exogenous cGAMP) is given as “impairs T-cell proliferation and can cause T-cell death”.

In the case of CC(C)(O)CNc1ncc(-c2ccnc(Nc3ccnc(Cl)c3)n2)c(CC2CC2)n1 [VPS34-IN1], the DNAJC13 endosomal localization (DNAJC13) is reported as “clear diffusion of DNAJC13 from the endosome”, the STING induced autophagy (STING; STING-HA 293T, digitonin and cGAMP, FIG. 22E) is reported as “greatly enhanced” and the STING degradation (STING; [2]) is reported as “enhancement of STING degradation”. The STING phosphorylation (STING; [2]) was “strong boost of STING phosphorylation”.

With CO[C@@H]1C[C@@H](C[C@H]2CC[C@H](C)[C@H]([C@@H](C)C(=O)O)O2)O[C@]2(O[C@](C)([C@H]3CC[C@@](C)([C@@H]4O[C@@H]([C@H]5O[C@@](O)(CO)[C@H](C)C[C@@H]5C)C[C@@H]4C)O3)C[C@H]2C)[C@@H]1C [Nigericin] the PH-S139 localization ([1]; FIG. 17E) was “PH-S139 localization change was observed to dispersed vesicles” and the “STING activation (phosphorylation) of fusion proteins” value ([1]; FIG. 17F) was “STING activation was observed in PH-S139 and 2XFYVE-S139 but not with mitochondria localized TomS33-S139 or WT STING”.

In the case of CCN(CC)CCO[C@H]1CC[C@@]2(C)C(=CC[C@@H]3[C@@H]2CC[C@]2(C)C(=O)CC[C@@H]32)C1 [U18666A], the “STING degradation (STING-HA MFI)” value (STING-HA) is reported as “marked reduction in STING degradation”.
